This is an account of results in PMC4404333, “Identification of Selective Inhibitors of the Plasmodium falciparum Hexose Transporter PfHT by Screening Focused Libraries of Anti-Malarial Compounds” (PLoS ONE, 2015).

Several values for one entry are separate records, joined by “and”; a condition that tells them apart may be missing. Identical values can stand only once. Like-named read-outs stand apart in the source and are kept apart here.

In one assay the test system is P. falciparum strain 3D7. Description: Proliferation of intraerythrocytic P. falciparum 3D7 (SYBR Green, 72 h). Conditions: Plasmodium falciparum, 3D7, 72 h, read-out: Pf 3D7 EC50. The format is cell-based, Plasmodium falciparum. On the procedure: (§1) Two P. falciparum strains were used in this study and were provided by the MR4 Unit of the American Type Culture Collection (ATCC, Manassas, VA). Those two strains were the chloroquine sensitive strain 3D7 and the K1 strain that is resistant to chloroquine, pyrimethamine, and sulfadoxine.
(§2) Asynchronous parasites were maintained in culture based on the method of Trager. Parasites were grown in presence of fresh group O-positive erythrocytes (Key Biologics, LLC) in Petri dishes at a hematocrit of 4–6% in RPMI based media (RPMI 1640 supplemented with 0.5% AlbuMAX II, 25 mM HEPES, 25 mM NaHCO3 (pH 7.3), 100 μg/mL hypoxanthine, and 5 μg/mL gentamycin). Cultures were incubated at 37°C in a gas mixture of 90% N2, 5% O2, 5% CO2. For EC50 determinations, 20 μL of RPMI 1640 with 5 μg/mL gentamycin were dispensed per well in an assay plate (Corning 384-well microtiter plate, clear bottom, tissue culture treated, catalog no. 8807BC). 40 nL of compound, previously serially diluted in a separate 384-well white polypropylene plate (Corning, catalog no. 8748BC), was dispensed to the assay plate by hydrodynamic pin transfer (FP1S50H, V&P Scientific Pin Head) and then 20 μL of a synchronized culture suspension (1% rings, 4% hematocrit) was added to each well, thus making a final hematocrit and parasitemia of 2% and 1%, respectively. Assay plates were incubated for 72 h, and the parasitemia was determined by a method previously described: Briefly, 10 μL of the assay solution in PBS (10X SYBR Green I, 0.5% v/v triton X-100, 0.5 mg/mL saponin) was added to each well. Assay plates were shaken for 1 min, incubated in the dark for 90 min, and read with an Envision (Perkin Elmer) spectrophotometer at Ex/Em of 485 nm/535 nm. EC50s were calculated with a custom program (RISE, Robust Investigation of Screening Experiments) using a four-parameter logistic equation.

A further assay concerns P. falciparum strain K1. Description: Proliferation of intraerythrocytic P. falciparum K1 (SYBR Green, 72 h). Format: cell-based, Plasmodium falciparum. Conditions: Plasmodium falciparum, K1, 72 h, read-out: Pf K1 EC50. The method, then:
as §1, §2

Assay [1] concerns P. falciparum strain 3D7 intraerythrocytic forms. Also noted: method as in PubChem web site, http://pubchem.ncbi.nlm.nih.gov/. Conditions: reported values; ref PubChem web site, http://pubchem.ncbi.nlm.nih.gov/; read-out: EC50 3D7 In vitro; cited from earlier work.
A further assay addresses T1, human GLUT1 (Homo sapiens, UniProt P11166).
T1 sequence (P11166 1-492): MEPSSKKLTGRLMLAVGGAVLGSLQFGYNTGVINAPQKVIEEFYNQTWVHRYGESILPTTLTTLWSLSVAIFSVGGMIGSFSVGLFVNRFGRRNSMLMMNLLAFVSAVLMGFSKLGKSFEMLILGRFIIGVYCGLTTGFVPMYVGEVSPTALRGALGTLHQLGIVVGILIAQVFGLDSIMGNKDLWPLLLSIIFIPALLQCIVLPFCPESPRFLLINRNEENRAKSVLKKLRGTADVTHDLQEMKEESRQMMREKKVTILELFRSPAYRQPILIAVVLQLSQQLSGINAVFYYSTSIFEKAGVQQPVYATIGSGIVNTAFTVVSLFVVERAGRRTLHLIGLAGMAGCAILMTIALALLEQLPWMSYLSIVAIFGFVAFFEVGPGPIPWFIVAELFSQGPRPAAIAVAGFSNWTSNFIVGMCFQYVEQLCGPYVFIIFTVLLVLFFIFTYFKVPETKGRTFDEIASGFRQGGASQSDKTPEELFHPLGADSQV
In words: Uptake of [3H] D-glucose by L. mexicana Δlmxgt1-3 null mutants expressing GLUT1. The settings on record: inhibition of uptake of 100 μM [3H] D-glucose, 1 min uptake assay. Also noted: expressed in transfected cells; host or cells: Leishmania mexicana promastigotes, Δlmxgt1-3 hexose transporter null mutant. The format is cell-based. On the procedure: (§3) Glucose uptake assays employed logarithmic phase L. mexicana promastigotes of the Δlmxgt1-3 hexose transporter null mutant strain expressing either PfHT or GLUT1 from an episomal expression vector [17]. Parasites (1x10^7) were resuspended in 100 μL phosphate buffered saline, pH 7.4. Prior to uptake, parasites were pre-incubated for 5 min with inhibitor, and uptake was initiated by adding 100 μL of 200 μM [^3H] D-glucose diluted to 4.0 μCi/mL. Uptake was terminated, typically after 1 min, by centrifuging the parasites through a layer of dibutyl phthalate, as described. Control uptake assays employing [^3H] hypoxanthine, [^3H] uridine, and [^3H] L-proline were performed similarly. Analysis of kinetic data was performed using Graph Pad Prism 4.0b software (Graph Pad).

A further assay addresses PfHT (Plasmodium falciparum, UniProt Q7KWJ5). Description: Uptake of [3H] D-glucose by L. mexicana Δlmxgt1-3 null mutants expressing PfHT. The format is cell-based. Also noted: expressed in transfected cells; host or cells: Leishmania mexicana promastigotes, Δlmxgt1-3 hexose transporter null mutant. Conditions: for SIglucose GLUT1/PfHT (Specificity Index, IC50 for GLUT1/IC50 for PfHT): uptake of 100 μM [3H] D-glucose; for Ki: linear regression; for Vmax: glucose uptake by PfHT. The method, then:
as §3

[2] abbreviates: read-out: IC50 PfHT, inhibition of uptake of 100 μM [3H] D-glucose, 1 min uptake assay.

PfHT, sequence (Q7KWJ5 whole entry): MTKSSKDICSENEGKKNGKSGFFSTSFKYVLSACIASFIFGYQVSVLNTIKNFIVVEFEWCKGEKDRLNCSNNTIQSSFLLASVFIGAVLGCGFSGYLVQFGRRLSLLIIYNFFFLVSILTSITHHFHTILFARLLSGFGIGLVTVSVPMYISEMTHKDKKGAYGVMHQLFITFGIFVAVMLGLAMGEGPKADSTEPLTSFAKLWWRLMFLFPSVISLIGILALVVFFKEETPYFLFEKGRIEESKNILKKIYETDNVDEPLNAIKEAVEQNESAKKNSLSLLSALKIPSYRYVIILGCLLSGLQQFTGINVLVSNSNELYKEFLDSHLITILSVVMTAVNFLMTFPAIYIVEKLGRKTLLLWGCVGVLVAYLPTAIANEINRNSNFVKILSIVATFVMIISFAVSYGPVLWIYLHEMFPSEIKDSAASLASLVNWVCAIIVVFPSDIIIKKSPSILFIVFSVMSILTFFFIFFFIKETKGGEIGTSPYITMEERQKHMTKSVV

In the case of `CCN(CC)CCCC(C)Nc1ccnc2cc(Cl)ccc12` (centres unmarked) [Chloroquine, chloroquine, reference compound], the EC50 with P. falciparum strain 3D7 worked out at 0.08 µM; in the assay on P. falciparum strain K1, 0.81 µM.
Take `CCC(C)(CC)C(=O)n1ncc2c3c(N)nc(N)nc3ccc21` [Compound 2]: the EC50 in assay [1] was 0.01 µM. This compound returned an IC50 at human GLUT1 of 44 µM. For the same compound, on PfHT, the half-inhibitory concentration (IC50) turned out to be 3 µM and the “SIglucose GLUT1/PfHT (Specificity Index, IC50 for GLUT1/IC50 for PfHT)” value is 15.
With `CC(C)C(C(=O)n1ncc2c3c(N)nc(N)nc3ccc21)C(C)C` [Compound 3], in assay [1], the EC50 is 0.65 µM. Further, the midpoint of inhibition against human GLUT1, the IC50, lay at 8.1 µM. On PfHT, the IC50 amounted to 1.1 µM and the “SIglucose GLUT1/PfHT (Specificity Index, IC50 for GLUT1/IC50 for PfHT)” value turned out to be 7.4.
Turning to `CCC(C)(C)C1CCc2[nH]c3ccccc3c(=O)c2C1` (centres unmarked) [Compound 4], the EC50 in assay [1] was 0.38 µM. The concentration for half-maximal inhibition (IC50) on human GLUT1 was 5.7 µM. Moreover, at PfHT, the IC50 was 27 µM and the “SIglucose GLUT1/PfHT (Specificity Index, IC50 for GLUT1/IC50 for PfHT)” value came out at 0.21.
As for `COc1ccc(Nc2cc(C)nc(Nc3ccc(NC(C)=O)cc3)n2)cc1` [Compound 5], in assay [1], the EC50 was 0.86 µM. Also, half-maximal inhibition on human GLUT1 (IC50) was put at 0.25 µM. Besides, on PfHT, the midpoint of inhibition, the IC50, lay at 3.4 µM and the “SIglucose GLUT1/PfHT (Specificity Index, IC50 for GLUT1/IC50 for PfHT)” value stood at 0.073.
For `Cc1cc(=O)[nH]c(-n2nc(C)cc2NC(=O)C(c2ccccc2)c2ccccc2)n1` [Compound 6], the EC50 in assay [1] was 0.84 µM. Further, the results for the IC50 against human GLUT1 and against PfHT were 0.66 µM and 12 µM, respectively. Further, at PfHT, the “SIglucose GLUT1/PfHT (Specificity Index, IC50 for GLUT1/IC50 for PfHT)” value amounted to 0.055.
On to `O=C1c2ccc3c4c(ccc(c24)C(=O)N1CCCCO)C(=O)N(CCCCO)C3=O` [Compound 7], for which, in assay [1], the EC50 is 0.79 µM. The IC50 against human GLUT1 was 3.6 µM and > 3 µM; on PfHT, 0.051 µM. Further, the “selective inhibition of PfHT versus GLUT1” value at PfHT was determined as 71 fold. The inhibition constant Ki on PfHT (Kic (Ki for binding of inhibitor to free transporter), from plot of Km/Vmax versus [I]) was 0.093 µM; at PfHT (Kiu (Ki for binding of inhibitor to substrate-bound transporter), from plot of 1/Vmax versus [I]), 0.091 µM. The Vmax was 274 ± 71 pmol per 10^7 cells per min on PfHT ([I] 100 nM) and 128 ± 42 pmol per 10^7 cells per min at PfHT ([I] 300 nM). Further, the “mode of inhibition of glucose uptake through PfHT” value on PfHT (substrate saturation curves, one-way ANOVA of Vmax and Km) is “non-competitive inhibitors”. In addition, the “SIglucose GLUT1/PfHT (Specificity Index, IC50 for GLUT1/IC50 for PfHT)” value on PfHT stood at 71.
For `CC(C)(C)C(=O)Nc1ccc(C(=O)Nc2cccc(-c3nc4ccccc4[nH]3)c2)cc1` [Compound 8], the EC50 in assay [1] was 0.28 µM. On human GLUT1, this compound registered an IC50 of 0.37 µM. At PfHT, the IC50 was 2.7 µM and the “SIglucose GLUT1/PfHT (Specificity Index, IC50 for GLUT1/IC50 for PfHT)” value is listed as 0.14.
Consider `CCN1CCN(Cc2ccc(NC(=O)c3cc4ccc5cccnc5c4[nH]3)cc2)CC1` [Compound 9], for which the EC50 in assay [1] was 0.38 µM. Moreover, the IC50 at human GLUT1 was 9.5 µM; against PfHT, 3.5 µM. Also, the “SIglucose GLUT1/PfHT (Specificity Index, IC50 for GLUT1/IC50 for PfHT)” value on PfHT is 2.7.
Turning to `COc1ccc(Nc2ccc3cc(S(=O)(=O)N4CCCCC4C)ccc3n2)cc1Cl` (centres unmarked) [Compound 11], at human GLUT1, the midpoint of inhibition, the IC50, lay at 61 µM. On PfHT, inhibition was half-maximal at 0.94 µM (IC50); the “selective inhibition of PfHT versus GLUT1” value was found to be 65 fold; the “SIglucose GLUT1/PfHT (Specificity Index, IC50 for GLUT1/IC50 for PfHT)” value turned out to be 65.
`COc1ccccc1Nc1ccc2cc(S(=O)(=O)N3CCCC3)ccc2n1` [Compound 14]: the IC50 on human GLUT1 was 6.3 µM; on PfHT (setting [2]), above 10 µM.
For the compound `COc1ccc(Nc2ccc3cc(S(=O)(=O)N4CCOCC4)ccc3n2)cc1OC` [Compound 15], 0.84 µM corresponded to half-maximal inhibition on human GLUT1 (IC50). In addition, at PfHT, the IC50 was determined as 3.1 µM and the “SIglucose GLUT1/PfHT (Specificity Index, IC50 for GLUT1/IC50 for PfHT)” value was 0.27.
On human GLUT1, `Cc1ccc(C(=O)Nc2cccc(-c3nc4ccccc4[nH]3)c2)cc1` [Compound 16] registered an IC50 of 72 µM. In addition, at PfHT, the IC50 worked out at 23 µM; the “SIglucose GLUT1/PfHT (Specificity Index, IC50 for GLUT1/IC50 for PfHT)” value is 2–3 and 3.1.
As for `Cc1cccc(C(=O)Nc2cccc(-c3nc4ccccc4[nH]3)c2)c1` [Compound 17], at human GLUT1, the IC50 was 12 µM. Besides, on PfHT, the 50% inhibitory concentration (IC50) is 13 µM and the “SIglucose GLUT1/PfHT (Specificity Index, IC50 for GLUT1/IC50 for PfHT)” value was 0.92.
Take `Cc1cc(C)cc(C(=O)Nc2cccc(-c3nc4ccccc4[nH]3)c2)c1` [Compound 18]: the IC50 at human GLUT1 is 12 µM. For the same compound, on PfHT, the 50% inhibitory concentration (IC50) stood at 16 µM and the “SIglucose GLUT1/PfHT (Specificity Index, IC50 for GLUT1/IC50 for PfHT)” value is on record as 0.75.
In the case of `O=C(Nc1cccc(-c2nc3ccccc3[nH]2)c1)c1ccccc1` [Compound 19], inhibition against human GLUT1 was half-maximal at 11 µM (IC50). In addition, at PfHT, the IC50 worked out at 5.3 µM; the “SIglucose GLUT1/PfHT (Specificity Index, IC50 for GLUT1/IC50 for PfHT)” value is 2–3 and 2.1.
Regarding `CC(C)(C)c1ccc(C(=O)Nc2cccc(-c3nc4ccccc4[nH]3)c2)cc1` [Compound 20], the results for the IC50 on human GLUT1 and on PfHT (setting [2]) were 31 µM and above 10 µM, respectively.
On to `CC(C)(C)C(=O)Nc1ccc(C(=O)Nc2ccc(-c3nc4ccccc4[nH]3)cc2)cc1` [Compound 21], for which half-maximal inhibition against human GLUT1 (IC50) was put at 11 µM. Besides, at PfHT, the IC50 was 91 µM and the “SIglucose GLUT1/PfHT (Specificity Index, IC50 for GLUT1/IC50 for PfHT)” value is recorded as 0.12.
`OC(c1cc(C(F)(F)F)nc2c(C(F)(F)F)cccc12)C1CCCCN1` (centres unmarked) [Mefloquine, mefloquine, reference compound]: the EC50 with P. falciparum strain 3D7 (chloroquine sensitive strain 3D7, 72 h) was 0.12 µM; in the assay with P. falciparum strain K1 (multi-drug resistant strain K1, 72 h), 0.02 µM.
